Data from ChEMBL document CHEMBL1201862, “PubChem BioAssay data set” (2004).
Active and inactive are the calls of the source.

Tests used:
[1] = target: T1, Replicative DNA helicase DnaB (Mycobacterium tuberculosis, UniProt P9WMR3); test: DnaB intein splicing inhibitors, dose response, biochemical, cell-free fluorescence (AID 449749); format: functional
T1 sequence (P9WMR3 whole entry): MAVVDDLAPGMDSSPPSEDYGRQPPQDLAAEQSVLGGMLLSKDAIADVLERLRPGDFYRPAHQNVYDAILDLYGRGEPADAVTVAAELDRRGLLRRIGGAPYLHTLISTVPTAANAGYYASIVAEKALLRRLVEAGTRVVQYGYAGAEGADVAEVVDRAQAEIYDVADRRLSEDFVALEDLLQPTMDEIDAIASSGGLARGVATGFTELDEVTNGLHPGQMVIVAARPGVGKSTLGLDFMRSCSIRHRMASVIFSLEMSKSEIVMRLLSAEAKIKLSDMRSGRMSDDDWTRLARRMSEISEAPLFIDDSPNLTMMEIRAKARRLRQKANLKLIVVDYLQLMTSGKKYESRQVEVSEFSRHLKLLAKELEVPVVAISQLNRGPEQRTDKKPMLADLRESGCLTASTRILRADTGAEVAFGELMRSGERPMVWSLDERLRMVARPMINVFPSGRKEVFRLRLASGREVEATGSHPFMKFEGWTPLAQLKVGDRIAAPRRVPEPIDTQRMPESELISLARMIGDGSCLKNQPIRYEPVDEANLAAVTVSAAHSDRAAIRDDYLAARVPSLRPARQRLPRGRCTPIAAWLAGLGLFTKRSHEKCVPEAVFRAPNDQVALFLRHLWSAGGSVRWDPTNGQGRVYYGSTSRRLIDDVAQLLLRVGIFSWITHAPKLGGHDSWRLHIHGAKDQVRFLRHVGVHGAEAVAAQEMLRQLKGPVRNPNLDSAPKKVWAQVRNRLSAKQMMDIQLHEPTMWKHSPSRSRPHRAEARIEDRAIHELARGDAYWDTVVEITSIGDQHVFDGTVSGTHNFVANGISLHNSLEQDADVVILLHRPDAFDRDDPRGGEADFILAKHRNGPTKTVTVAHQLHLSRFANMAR

Protein RecA = target: T2, Protein RecA (Mycobacterium tuberculosis, UniProt P9WHJ3); test: Fluorescence Cell-Free Homogeneous Dose Retest to Identify Inhibitors of RecA-Intein Splicing Activity. [Related pubchem assays (depositor defined):AID2097, AID2223, AID489010, AID492950]; format: functional
T2 sequence (P9WHJ3 whole entry): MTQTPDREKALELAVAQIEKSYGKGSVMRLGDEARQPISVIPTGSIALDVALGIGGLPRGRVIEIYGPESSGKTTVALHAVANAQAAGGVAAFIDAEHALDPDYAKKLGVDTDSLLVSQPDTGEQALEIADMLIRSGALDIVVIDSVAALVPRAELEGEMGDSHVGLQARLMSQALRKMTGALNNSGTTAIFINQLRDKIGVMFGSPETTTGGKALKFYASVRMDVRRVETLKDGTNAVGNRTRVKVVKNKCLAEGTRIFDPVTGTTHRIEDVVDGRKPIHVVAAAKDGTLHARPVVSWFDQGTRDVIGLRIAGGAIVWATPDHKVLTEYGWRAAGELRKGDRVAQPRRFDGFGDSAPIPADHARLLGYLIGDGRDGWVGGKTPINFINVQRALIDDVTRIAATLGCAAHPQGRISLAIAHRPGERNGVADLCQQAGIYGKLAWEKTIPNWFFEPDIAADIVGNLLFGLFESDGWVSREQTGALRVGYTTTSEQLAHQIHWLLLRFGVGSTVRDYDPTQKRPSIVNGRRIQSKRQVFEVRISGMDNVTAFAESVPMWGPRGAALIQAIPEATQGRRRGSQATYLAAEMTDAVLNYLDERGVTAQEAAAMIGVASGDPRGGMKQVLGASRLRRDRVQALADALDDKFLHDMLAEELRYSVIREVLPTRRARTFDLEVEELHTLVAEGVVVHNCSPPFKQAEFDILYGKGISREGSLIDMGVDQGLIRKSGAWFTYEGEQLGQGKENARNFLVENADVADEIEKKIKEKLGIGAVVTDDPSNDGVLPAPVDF

[2] = target: T3, Corticotropin-releasing factor receptor 2/Corticotropin-releasing factor-binding protein (Homo sapiens, UniProt P24387+Q13324); test: activators of CRF receptor 2 with binding protein – uHTS hits, confirmation (AID 602473); format: functional; details: read-out: EC50_Mean
T3 sequence (Q13324 whole entry): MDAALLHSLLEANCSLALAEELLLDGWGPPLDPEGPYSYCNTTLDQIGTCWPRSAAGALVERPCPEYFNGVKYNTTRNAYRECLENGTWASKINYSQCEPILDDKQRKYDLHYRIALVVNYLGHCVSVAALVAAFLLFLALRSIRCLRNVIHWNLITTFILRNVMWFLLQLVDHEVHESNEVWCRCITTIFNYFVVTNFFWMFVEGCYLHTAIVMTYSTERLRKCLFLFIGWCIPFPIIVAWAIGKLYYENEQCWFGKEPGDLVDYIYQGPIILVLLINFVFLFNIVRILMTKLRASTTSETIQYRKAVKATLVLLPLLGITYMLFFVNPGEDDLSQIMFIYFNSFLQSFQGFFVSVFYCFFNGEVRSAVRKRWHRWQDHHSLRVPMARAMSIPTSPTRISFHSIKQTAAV
T3 sequence (P24387 whole entry): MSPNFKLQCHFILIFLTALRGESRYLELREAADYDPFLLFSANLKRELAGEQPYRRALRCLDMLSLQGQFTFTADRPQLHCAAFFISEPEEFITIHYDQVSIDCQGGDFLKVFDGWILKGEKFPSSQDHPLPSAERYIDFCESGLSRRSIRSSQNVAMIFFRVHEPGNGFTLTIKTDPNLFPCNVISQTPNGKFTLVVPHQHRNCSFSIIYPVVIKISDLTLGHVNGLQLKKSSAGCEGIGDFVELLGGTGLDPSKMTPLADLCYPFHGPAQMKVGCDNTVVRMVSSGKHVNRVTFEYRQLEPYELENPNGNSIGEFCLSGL

[3] = HEp-2 cell cytotoxicity, dose response, cytotoxicity control for RSV inhibitor project, HTS (AID 2410); format: functional; details: human respiratory syncytial virus
[4] = tested on: Streptococcus sp. 'group A'; test: growth inhibition of control SK(-) GAS strain, dose response, counter-screen for streptokinase expression inhibitor project, luminescence, kanamycin, BacTiterGlo, confirmation (AID 1900); format: functional, organism-based
Streptokinase A = target: T4, Streptokinase A (Streptococcus pyogenes serotype M1, UniProt P10520); test: S. pyogenes streptokinase expression inhibitors, potency, dose response, plasminogen activation absorbance, OD405 (AID 1914); format: functional, Streptococcus pyogenes M1 GAS;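 further: secreted streptokinase activity via plasminogen activation per viability signal from cell pellet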
T4 sequence (P10520 whole entry): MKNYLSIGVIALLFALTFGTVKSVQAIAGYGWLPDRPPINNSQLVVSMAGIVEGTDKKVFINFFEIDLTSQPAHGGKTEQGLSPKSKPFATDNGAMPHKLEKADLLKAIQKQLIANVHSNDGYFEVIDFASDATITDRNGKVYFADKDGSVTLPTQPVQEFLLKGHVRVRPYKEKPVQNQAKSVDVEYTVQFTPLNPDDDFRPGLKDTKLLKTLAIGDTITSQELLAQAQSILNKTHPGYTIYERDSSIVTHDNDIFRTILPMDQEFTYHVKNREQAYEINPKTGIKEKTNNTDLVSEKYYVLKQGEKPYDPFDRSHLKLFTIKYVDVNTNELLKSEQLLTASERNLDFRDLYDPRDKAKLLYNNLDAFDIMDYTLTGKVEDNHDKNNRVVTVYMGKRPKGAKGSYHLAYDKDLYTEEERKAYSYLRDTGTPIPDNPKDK

Streptococcus = test: Group A Streptococcus viability loss, dose response, counter-screen for streptokinase expression inhibitor project, luminescence, BacTiterGlo (AID 1915); format: functional, organism-based;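 further: potency for reduction of bacterial viability or growth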
Cytochrome P450 2C9 = Cytochrome P450 2C9 (Homo sapiens, UniProt P11712)
[5] = target: T5, Heat shock factor protein 1 (Mus musculus, UniProt P38532); test: HSF1 potentiators in luciferase reporter cells, confirmation, cell-based, NIH3T3, luminescence, dose retest (AID 435004); format: functional;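 further: stress induced by proteasome inhibitor MG132 added 30 min after compound; luciferase reporter driven by HSF1 response element in NIH3T3 cells; actives raise luminescence as potentiators of the MG132 stress response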
T5 sequence (P38532 whole entry): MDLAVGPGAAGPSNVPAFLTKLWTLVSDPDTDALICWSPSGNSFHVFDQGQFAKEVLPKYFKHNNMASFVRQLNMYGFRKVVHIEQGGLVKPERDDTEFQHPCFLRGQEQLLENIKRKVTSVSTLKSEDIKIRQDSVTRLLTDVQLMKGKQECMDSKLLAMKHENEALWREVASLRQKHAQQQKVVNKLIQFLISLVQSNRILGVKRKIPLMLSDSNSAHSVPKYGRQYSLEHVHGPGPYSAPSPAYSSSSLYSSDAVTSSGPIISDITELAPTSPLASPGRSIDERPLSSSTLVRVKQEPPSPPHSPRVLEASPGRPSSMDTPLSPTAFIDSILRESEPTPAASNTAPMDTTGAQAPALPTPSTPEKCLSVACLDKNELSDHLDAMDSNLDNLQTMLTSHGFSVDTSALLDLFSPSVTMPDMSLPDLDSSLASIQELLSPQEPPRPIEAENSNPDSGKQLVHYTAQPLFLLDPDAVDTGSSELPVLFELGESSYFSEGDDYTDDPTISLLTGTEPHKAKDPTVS

Cytochrome P450 2D6 = Cytochrome P450 2D6 (Homo sapiens, UniProt P10635);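 further: CYP2D6 member of a cytochrome P450 panel assay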
Cytochrome P450 2D6, sequence (P10635 whole entry): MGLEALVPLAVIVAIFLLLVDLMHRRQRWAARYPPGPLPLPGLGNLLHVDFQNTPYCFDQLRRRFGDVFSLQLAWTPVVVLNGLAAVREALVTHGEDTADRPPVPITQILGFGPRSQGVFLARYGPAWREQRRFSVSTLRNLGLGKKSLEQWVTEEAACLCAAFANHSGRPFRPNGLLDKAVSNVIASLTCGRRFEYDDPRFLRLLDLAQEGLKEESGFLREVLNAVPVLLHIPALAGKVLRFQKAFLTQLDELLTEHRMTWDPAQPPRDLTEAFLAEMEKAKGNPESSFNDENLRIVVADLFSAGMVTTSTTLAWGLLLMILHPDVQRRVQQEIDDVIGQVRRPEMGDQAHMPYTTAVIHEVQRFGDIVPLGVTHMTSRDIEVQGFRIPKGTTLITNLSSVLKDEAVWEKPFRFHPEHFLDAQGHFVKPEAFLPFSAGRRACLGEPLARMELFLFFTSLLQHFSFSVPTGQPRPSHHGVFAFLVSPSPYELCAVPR

Cytochrome P450 2C9, sequence (P11712 whole entry): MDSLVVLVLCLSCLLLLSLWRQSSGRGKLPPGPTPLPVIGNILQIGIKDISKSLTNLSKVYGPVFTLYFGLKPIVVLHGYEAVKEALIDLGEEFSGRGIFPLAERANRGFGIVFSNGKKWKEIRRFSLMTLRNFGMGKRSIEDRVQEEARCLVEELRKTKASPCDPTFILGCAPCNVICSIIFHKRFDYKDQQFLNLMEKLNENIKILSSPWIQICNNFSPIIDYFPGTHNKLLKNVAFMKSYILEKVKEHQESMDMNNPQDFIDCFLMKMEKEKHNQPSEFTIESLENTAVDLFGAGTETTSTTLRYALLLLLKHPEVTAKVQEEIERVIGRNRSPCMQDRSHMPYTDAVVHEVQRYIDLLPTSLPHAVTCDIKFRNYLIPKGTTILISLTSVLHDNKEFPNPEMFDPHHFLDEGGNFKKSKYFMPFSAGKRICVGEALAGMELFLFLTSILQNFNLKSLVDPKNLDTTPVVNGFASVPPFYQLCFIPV

| Compound | AC50 [1] | EC50 (Protein RecA) | CC50 [3] | further results |
| --- | --- | --- | --- | --- |
| Cc1ccc(S(=O)(=O)Oc2ccc(C(c3c(C)n[nH]c3O)c3c(C)n[nH]c3O)cc2)cc1 | 7.06 µM (active) | 46.2 µM (active) |  | EC50 [2]: > 53 µM (inactive) |
| O=C(N/C=C/c1ccccc1)Nc1ccc(Cl)cc1 |  |  | 20.8 µM (active) |  |
| CCOc1ccc(S(=O)(=O)N2CCN(c3ccccc3)CC2)c2cccnc12 |  |  | 30.9 µM (active) |  |
| Oc1c(Br)cc(Br)cc1CNc1ccc(F)cc1 |  |  |  | EC50 [4]: 20.4 µM (active); EC50 (Streptokinase A): 84.4 µM (active); EC50 (Streptococcus): > 150 µM (not active) |
| O=[N+]([O-])c1cc(C(F)(F)F)ccc1SCC(O)CO (stereo not drawn) |  |  | > 50 µM (active) |  |
| c1ccc2c(CSCc3cccc4ccccc34)cccc2c1 |  |  |  | AC50 (Cytochrome P450 2C9): 3.16 µM (inconclusive) |
| CC(=O)Oc1ccc(N(C(C)=O)S(=O)(=O)c2ccc3ccccc3c2)cc1Br | 9.4 µM (active) | 17.3 µM (active) |  |  |
| COc1ccc(-c2[nH]nc3c2C(c2ccoc2)C(C#N)=C(N)O3)cc1 (stereo not drawn) | 1.39 µM (active) | 0.548 µM (active) |  |  |
| Cc1nc2ccc(S(=O)(=O)NC(CC(C)C)C(=O)O)cc2s1 (stereo not drawn) |  |  |  | AC50 (Cytochrome P450 2C9): 12.6 µM (inconclusive) |
| O=C1C=C/C(=N/c2cccc3c(/N=C4\C=CC(=O)O4)cccc23)O1 |  |  |  | AC50 (Cytochrome P450 2C9): 6.31 µM (inconclusive) |
| CCCc1n[nH]c2c1C(c1ccsc1)C(C#N)=C(N)O2 (stereo not drawn) | 16.5 µM (active) | 2.28 µM (active) |  |  |
| Cc1noc(C)c1COC(=O)CCN1c2ccccc2Sc2ccccc21 |  |  | 37.9 µM (active) |  |
| CC(C)(C)C(=O)Nc1cccc(-c2cc(-c3c(Cl)cccc3Cl)no2)c1 |  |  | 12.9 µM (active) | EC50 [5]: > 260 µM (inactive) |
| O=C(Nc1cnc(O)nc1O)c1cccc(F)c1 |  |  | 18.6 µM (active) |  |
| Cc1ccc(NC(=O)c2sc3ncnc(N4CCN(c5ccccn5)CC4)c3c2C)c(C)c1 | 15.7 µM (active) | > 380 µM (inactive) |  |  |
| Brc1ccc2c(c1)C(c1ccc(N3CCOCC3)cc1)=NNC(c1cccs1)=N2 |  |  | 32.1 µM (active) |  |
| COc1ccc(-c2oc3cccnc3c2C#CC2(O)CCCCC2)cc1 |  |  |  | EC50 [4]: 7.18 µM (active); EC50 (Streptokinase A): > 150 µM (not active); EC50 (Streptococcus): 11.1 µM (active) |
| O=C(Nc1nnc(SCc2ccccc2Cl)s1)C1COc2ccccc2O1 (stereo not drawn) |  |  |  | EC50 [4]: 4.52 µM (active); EC50 (Streptokinase A): 7.36 µM (active); EC50 (Streptococcus): 16.7 µM (active) |
| Cc1oc2cc(O)cc(C)c2c(=O)c1-c1cnn(-c2ccccc2)c1 |  |  | 15.6 µM (active) |  |
| COc1cc(Cn2nnc3ccccc32)cc(Br)c1O |  |  | 23.2 µM (active) |  |
| COc1ccc(N(C)C(=O)c2cc3c(s2)-c2c(C)cccc2OC3)c(OC)c1 | 74.5 µM (active) | 133 µM (inconclusive) | 19.6 µM (active) |  |
| COC(=O)c1[nH]c2ccc(Br)cc2c1NC(=O)CN1CCCc2ccccc21 |  |  | 41.9 µM (active) |  |
| O=C1/C(=C/c2ccc3c(c2)OCO3)CCC/C1=C\c1ccc2c(c1)OCO2 | > 380 µM (inactive) | > 380 µM (inactive) |  |  |
| CCCc1n[nH]c2c1C(c1cc(OC)cc(OC)c1)C(C#N)=C(N)O2 (stereo not drawn) | 1.27 µM (active) | 1.51 µM (active) |  |  |
| N#CC1=C(N)N(c2ccccc2)C(c2cccc([N+](=O)[O-])c2)C1(C#N)C#N (stereo not drawn) | 5.73 µM (active) | 12.8 µM (active) |  |  |
| O=C(c1ccc2nc(Cc3cccc(Cl)c3)oc2c1)N1CCC(O)CC1 | 357 µM (active) | > 380 µM (inactive) |  |  |
| Cc1[nH]n(-c2ccccc2)c(=O)c1C=C1C(=O)NC(=O)NC1=O | 16.8 µM (active) | 7.39 µM (active) |  |  |
| C/C(=N\Nc1cccc([N+](=O)[O-])c1)c1cc(F)ccc1O |  |  | > 50 µM (active) |  |
| O=C(Cc1ccccc1)N/N=C/c1ccccn1 |  |  |  | EC50 [4]: > 150 µM (not active); EC50 (Streptokinase A): > 150 µM (not active); EC50 (Streptococcus): > 150 µM (not active) |
| N[C@@H]1C[C@H]1c1ccccc1.N[C@H]1C[C@@H]1c1ccccc1 [TRANYLCYPROMINE] |  |  |  | AC50 (Cytochrome P450 2C9): 39.8 µM (inconclusive); AC50 (Cytochrome P450 2D6): 31.6 µM (inconclusive) |
